# Measurements published in patent publication US20110112308A1 (NOVARTIS AG, priority 2006, published 2011).
# How the values were obtained:
# [1] = Solubility, 24-hour equilibration at room temperature; type: physicochemical; conditions: for solubility at 24 h: organic solvent or mixture, thermodynamic from solid
# Experimental: Aqueous Solubility: A carefully weighted amount (20-50 mg) of sample is dissolved in 1 ml of solvent with 24-hour equilibration at room temperature. The solubility was determined either gravimetrically or by UV-VIS spectrometry. The pH of the clear solution was also measured. However, the difficulty of determining salt solubilities in water should be stressed, since upon dissolution dissociation to the free form is possible, which affects both the solubility and the pH. It's not unlikely that attempts to make solutions of a salt at a concentration well below the reported solubility of the salt to be unsuccessful (for a full discussion see: M. Pudipeddi, A. T. M. Serajuddin, D. J. W. Grant, and P. H. Stahl in “Handbook of Pharmaceutical Salts Properties Selection and Use” page 27 and references therein).
# [2] = pH of saturated solution or 1% suspension in water; type: physicochemical; conditions: room temperature
# Experimental: pH Value: The pH at room temperature of a saturated solution or 1% suspension of the drug substance in water was recorded.
# [3] = Intrinsic dissolution rate, rotation disk method; type: physicochemical; conditions: for Intrinsic Dissolution Rate: 37° C., 200 r.p.m.
# Experimental: Intrinsic Dissolution: […] […] Pellets of the other salts remained intact for at least several minutes enabling the determination of the intrinsic dissolution rate. Dissolution rate studies were performed using the rotation disk method ([…] Instrument). A single rotation speed of 200 r.p.m. was used to dissolve drug substance into a 500 mL vessel at 37° C. The solution was continuously pumped through a UV cell measurement and returned to the dissolution vessel.
# [4] = Solution stability (HPLC); type: physicochemical; conditions: for stability characteristics, in words: both in solution and in the solid state; for Unstressed (% Area): unstressed baseline of the stability study
# Experimental: (§1) All samples were prepared/diluted to a concentration of 0.2 mg/mL in methanol prior to analysis by HPLC. A freshly prepared sample of each salt was used as the reference standard for external standard calibration analysis.
# [5] = Solid-state stability; type: physicochemical; conditions: for Bulk stability (XRPD): 1 week
# Experimental: as §1
# [6] = Stability of mixtures with excipients; type: physicochemical; conditions: for stability with all excipient mixtures tested, in words: after 2 weeks at 50° C./75% r.h.
# Experimental: as §1
# [7] = pH of saturated solution or 1% suspension in water; type: physicochemical; conditions: In pH = 6.8 buffer
# [8] = Equilibration in solvents and buffers: form conversion; conditions: water / aqueous solutions
# [9] = Water, free base pellet disintegrated, not true intrinsic rate
# [10] = 2 mg/mL in 100 mM lactate buffer, pH 3.5
# [11] = 2 mg/mL in methanol, 1 week at 50° C.
# [12] = 2 mg/mL in water, 1 week at 50° C.
# [13] = 2 mg/mL, 100 mM lactate buffer pH 3.5, 1 week at 50° C., external standard
# [14] = 2% in 0.5% HPMC 4000, 1 day at RT
# [15] = 2% in 0.5% Klucel HF, 1 day at RT
# [16] = 2% in 0.8% Tween 80, 1 day at RT
# [17] = 5% solution, 1 day at RT (diluted 1:100 in pH 6.8 buffer)
# [18] = Bulk stability, 2 weeks, 50° C.
# [19] = Bulk stability, 2 weeks, 50° C./20% water
# [20] = Bulk stability, 2 weeks, 50° C./75% r.h.
# [21] = Light study, 1200 kLux (300-800 nm)
# [22] = Mixture 1: 50% PVP + 50% Crospovidone, 50° C./75% r.h., 2 weeks
# [23] = Mixture 2: 50% Starch 1500 + 5% MCC 102, 50° C./75% r.h., 2 weeks
# [24] = Mixture 3: 5% PVP + 5% Crospovidone + 10% Starch 1500 + 80% MCC 102, 50° C./75% r.h., 2 weeks
# [25] = Mixture 4: 99% Lactose + 1% BHT/BHA, 50° C./75% r.h., 2 weeks
# [26] = Mixture 5: 99% Mannitol + 1% BHT/BHA, 50° C./75% r.h., 2 weeks
# [27] = Mixture 6: 50% Mannitol + 47% HPCLH21 + 1% BHT/BHA + 2% Magnesium Stearate, 50° C./75% r.h., 2 weeks
# [28] = Mixture 7: 50% Cetyl Alcohol + 49% HPCLH21 + 1% Magnesium Stearate, 50° C./75% r.h., 2 weeks
structure (smiles),measurement,setting,value
"CS(=O)(=O)O.Cc1[nH]c2ccccc2c1CCNCc1ccc(/C=C/C(=O)NO)cc1 [Mesylate, 1:1 mesylate salt of N-hydroxy-3-[4-[[[2-(2-methyl-1H-indol-3-yl)ethyl]amino]methyl]phenyl]-2E-2-propenamide]",aqueous solubility,[1],12900 µg/mL
same,"solubility in methanol and ethanol, in words",[1],high
same,"solubility in other common / remaining organic solvents, in words",[1],appreciable
same,Solubility,"[1]; 0.1N HCl, approx. at 25° C.",600 µg/mL
same,Solubility,"[1]; 2-Propanol, approx. at 25° C.",2200 µg/mL
same,Solubility,"[1]; Acetone, approx. at 25° C.",3000 µg/mL
same,Solubility,"[1]; Ethanol, approx. at 25° C.",14600 µg/mL
same,Solubility,"[1]; Ethyl acetate, approx. at 25° C.",6400 µg/mL
same,Solubility,"[1]; Methanol, approx. at 25° C.",>115000 µg/mL
same,Solubility,"[1]; Propylene glycol, approx. at 25° C.",46500 µg/mL
same,Solubility,"[1]; Water, approx. at 25° C.",12900 µg/mL
same,behaviour of clear aqueous solutions on storage,"[1]; concentration below the reported solubility, precipitate found to be the free base",solid precipitation occurred
same,approximate solubility in water as %,[1]; estimated from mg/mL assuming solution density 1 g/mL,1.3%
same,Solubility,"[1]; pH = 6.8 buffer, approx. at 25° C.",4100 µg/mL
same,pH of saturated solution,[2],4.34
same,"intrinsic dissolution (rate), in words",[3],high
same,Intrinsic Dissolution Rate,[3]; HCl 0.1N,6.51 mg min^−1 cm^−2
same,Intrinsic Dissolution Rate,[3]; [9],10.17 mg min^−1 cm^−2
same,pH of initial mixture,[4]; [10],3.48
same,% DP (total degradation products),[4]; [11],0.62 % area
same,assay,[4]; [11],[101.2]
same,pH of initial mixture,[4]; 2 mg/mL in water,6.55
same,% DP (total degradation products),[4]; [12],1.16 % area
same,assay,[4]; [12],[99.30]
same,% DP (total degradation products),"[4]; 2 mg/mL, 100 mM lactate buffer pH 3.5, 1 week at 50° C.",1.60 % area
same,assay,[4]; [13],[99.25]
same,% DP (total degradation products),"[4]; 2% in 0.5% CMC, 1 day at RT",0.74 % area
same,CL (appearance),"[4]; 2% in 0.5% CMC, 1 day at RT",A↓↓
same,assay,"[4]; 2% in 0.5% CMC, 1 day at RT",[79.72]
same,% DP (total degradation products),[4]; [14],0.66 % area
same,assay,[4]; [14],[97.30]
same,% DP (total degradation products),[4]; [15],0.66 % area
same,assay,[4]; [15],[97.63]
same,% DP (total degradation products),[4]; [16],0.63 % area
same,assay,[4]; [16],[98.05]
same,% DP (total degradation products),[4]; [17],0.78 % area
same,assay,[4]; [17],[99.30]
same,"stability characteristics, in words",[4],very good stability
same,Unstressed (% Area),[4],99.30% Area
same,Bulk stability (XRPD),[5]; 80° C.,No change
same,Bulk stability (XRPD),[5]; 80° C./75% r.h.,No change
same,% DP (total degradation products),[5]; [18],0.80 % area
same,assay,[5]; [18],[99.35]
same,% DP (total degradation products),[5]; [19],1.48 % area
same,assay,[5]; [19],[97.36]
same,% DP (total degradation products),[5]; [20],1.20 % area
same,assay,[5]; [20],[100.0]
same,% DP (total degradation products),[5]; [21],1.16 % area
same,CL (appearance),[5]; [21],B (B = slight discoloration)
same,assay,[5]; [21],[98.28]
same,% DP (total degradation products),[6]; [22],0.8 % area
same,% DS (drug substance),[6]; [22],99.2 % area
same,% DP (total degradation products),[6]; [23],0.7 % area
same,% DS (drug substance),[6]; [23],99.3 % area
same,% DP (total degradation products),[6]; [24],0.7 % area
same,% DS (drug substance),[6]; [24],99.3 % area
same,% DP (total degradation products),[6]; [25],0.8 % area
same,% DS (drug substance),[6]; [25],99.2 % area
same,% DP (total degradation products),[6]; [26],0.8 % area
same,% DS (drug substance),[6]; [26],99.2 % area
same,% DP (total degradation products),[6]; [27],0.7 % area
same,% DS (drug substance),[6]; [27],99.3 % area
same,% DP (total degradation products),[6]; [28],0.6 % area
same,% DS (drug substance),[6]; [28],99.4 % area
same,% DP (total degradation products),"[6]; Standard, freshly prepared",0.5 % area
same,% DS (drug substance),"[6]; Standard, freshly prepared",99.5 % area
same,"stability with all excipient mixtures tested, in words",[6],very good stability
same,pH of saturated solution,[7],5.38
same,conversion upon equilibration,[8],polymorphic transformation
"Cc1[nH]c2ccccc2c1CCNCc1ccc(/C=C/C(=O)NO)cc1 [Free base, N-hydroxy-3-[4-[[[2-(2-methyl-1H-indol-3-yl)ethyl]amino]methyl]phenyl]-2E-2-propenamide]",solubility at 24 h,"[1]; ethyl acetate, 25 °C",5600 µg/mL
same,solubility at 24 h,"[1]; Acetone, approx. at 25° C.",6500 µg/mL
same,solubility at 24 h,"[1]; Ethanol, approx. at 25° C.",1500 µg/mL
same,solubility at 24 h,"[1]; Methanol, approx. at 25° C.",2300 µg/mL
same,pH of saturated solution,[2],8.7
same,Intrinsic Dissolution Rate,[3]; [9],0.15 mg min^−1 cm^−2
same,pH of initial mixture,[4]; [10],3.60
same,assay,[4]; [11],[100.2]
same,pH of initial mixture,[4]; 2 mg/mL in water,9.59
same,CL (appearance),[4]; [12],A↓
same,assay,[4]; [12],[98.73]
same,assay,[4]; [13],[97.21]
same,assay,"[4]; 2% in 0.5% CMC, 1 day at RT",[98.07]
same,assay,[4]; [14],[100.4]
same,assay,[4]; [15],[99.28]
same,assay,[4]; [16],[98.91]
same,CL (appearance),[4]; [17],A↓
same,assay,[4]; [17],[100.4]
same,"stability characteristics, in words",[4],very good stability
same,Unstressed (% Area),[4],99.41% Area
same,Bulk stability (XRPD),[5]; 80° C.,Changed to mod. C
same,Bulk stability (XRPD),[5]; 80° C./75% r.h.,no change
same,assay,[5]; [18],[97.76]
same,assay,[5]; [19],[99.48]
same,assay,[5]; [20],[98.61]
same,CL (appearance),[5]; [21],B (B = slight discoloration)
same,assay,[5]; [21],[99.39]
same,% DS (drug substance),[6]; [22],98.8 % area
same,% DS (drug substance),[6]; [23],99.4 % area
same,% DS (drug substance),[6]; [24],99.3 % area
same,% DS (drug substance),[6]; [25],99.4 % area
same,% DS (drug substance),[6]; [26],99.2 % area
same,% DS (drug substance),[6]; [27],99.4 % area
same,% DS (drug substance),[6]; [28],99.5 % area
same,% DS (drug substance),"[6]; Mixture 8: 100% PEG 3350, 50° C./75% r.h., 2 weeks",98.6 % area
same,% DS (drug substance),"[6]; Standard, freshly prepared",99.5 % area
same,"stability with all excipient mixtures tested, in words",[6],very good stability
same,pH of saturated solution,[7],6.91
